# From patent publication US10350273B2, “Treatment of hormonal disorders of growth” (The United States of America, as represented by the …, priority 2014, dated 2019)
# “Also recorded” adds a separate entry of the source. Numbered stars: 1 amine (or outer) side, 2 acyl side, 3 side chain; on linkers, the order of the positions; unused ones are H or OH. Square brackets hold non-standard residues; d marks the D form. Side chains are listed from the residue outwards. Ends that are not written are not given here. Peptide text beside a SMILES is read from it. * marks the point of attachment. Ethylenediamine = C(CN[*:2])N[*:1]; Hyp = O=C(O)[C@@H]1C[C@@H](O)CN1; Phg = N[C@H](C(=O)O)c1ccccc1; CO = O=C([*:1])[*:2]; Bn = c1ccc(C*)cc1
# Key:
# cAMP production = test: cAMP assay (HTRF-cAMP Femto Kit) in cells from the tumor; format: cell-based, human; details: 10^−6M, 3 h, 37° C.
# Protocol: Following the pharmacological co-incubation studies described in Example 13 the response of the tumor cells in terms of cAMP production was assessed. The cells from tumor were seeded into 24-well plates (4×10^4 cells/well). After 24 h in culture, the cAMP concentration was determined using the HTRF-cAMP Femto Kit (CisBio International, Bagnols-sur-Cèze, France), as described previously Cuny et al. (Mol Cell Endocrinol 355, 106-113, 2012). According to the manufacturer's protocol, the cells were detached using trypsin, seeded onto 96-well plates in suspension, and incubated at 37° C. for 3 h in the presence of forskolin. The HTRF assay reagents were then added directly into the 96-well plates.
# somatotroph cells [1] = test: GH secretion by primary pituitary tumor cell culture of an X-LAG patient; format: cell-based, human; details: for GH change compared to control wells: overnight incubation; for effect on GH secretion (in words): X-LAG pituitary tumor cell culture, dose range; for GH response on co-incubation with GHRH: co-incubation with GHRH 10^−10M
# Protocol: (§1) A surgical sample of the human pituitary adenoma of the patient mentioned in example 11 in Dulbecco's modified Eagle's medium (DMEM) was dissociated mechanically and enzymatically as described by Jaquet et al. (Hormonal regulation of prolactin release by human prolactinoma cells cultured in serum-free conditions. Horm Res 22 153-163, 1985). A sample of the medium in the postoperative sample was retained before further preparation. A total of 50,000 tumor cells per well were plated in 24 well plates coated with extracellular matrix from bovine endothelial corneal cells required for cell adhesion. The cells were cultured in DMEM depleted of L-Valine (D-Valine-DMEM) to block fibroblast proliferation, supplemented with 10% fetal calf serum, penicillin (100 U/ml), streptomycin (100 μg/ml), and glutamine ([…]) at 37° C. in a water-saturated atmosphere containing 7% CO2. After 48 h, culture medium was changed to D-Valine DMEM containing 1% ITS (Insulin Transferin Selenium) and 1% fetal calf serum for another 48 h. Cells were incubated with drugs at a range of concentrations (10^−12-10^−7 mol/L) for 16 h (overnight). All the experiments were performed in triplicate. The medium was collected and stored frozen for GH and PRL measurements.
# (§2) The somatostatin analogs (SSAs), octreotide and pasireotide were purchased from Novartis (Basel, Switzerland), Forskolin was obtained from Sigma-Aldrich (St. Quentin Fallavier, France), Cabergoline was obtained from Pfizer (Pharmacia & Upjohn Kalamazoo, USA), MK-0677 (ghrelin analog) was obtained from Europeptide, Argenteuil France, and MSP (ghrelin receptor-GHS-R inverse agonist) came from Polypeptide Laboratories (Strasbourg, France). The GHRH receptor antagonist, acetyl-(D-Arg^2)-GHRH(1-29) amide, and GnRH1-5 were obtained from Bachem, Europe.
# (§3) GH secretion by the primary culture cells was quantified using the ALPHALISA® human growth hormone GH kit (Perkin Elmer USA). Prolactin levels were measured in culture medium using a commercial IRMA kit (PRL IRMA Kit-Beckman Coulter Immunotech, Marseille, France). Human GHRH concentrations in plasma were measured using an in-house double-antibody radio-immunoassay as described previously and using a standard solution of Stimu-GH 50 μg (Ferring) and the matrix was non-used culture medium (Girard et al.; Eur. J. Clin. Pharmacol., 32, 507-513, 1987).
# somatotroph cells [2] = test: Prolactin (PRL) secretion by primary pituitary tumor cell culture of an X-LAG patient; format: cell-based, human; details: for effect on prolactin secretion (in words): X-LAG pituitary tumor cell culture, dose range; for PRL change compared to control wells: overnight incubation, mean±SEM; for PRL response on co-incubation with GHRH: co-incubation with GHRH 10^−10M
# Protocol: as §1, §2, §3
# X-LAG patients = test: Clinical treatment of X-LAG patients; format: in vivo, human; details: for IGF-1 levels under treatment: octreotide 150 mcg sc t.i.d. together with cabergoline 0.5 mg/week, one patient; for hormonal or growth control: X-LAG patients
# Description: Among the nine patients who underwent primary surgical resection, three had immediate GH/PRL control and excessive growth was halted. For those patients in whom growth and GH secretion were not controlled by their initial surgery, the subsequent management was complex. […] Therefore, it can be concluded that the GH receptor antagonist pegvisomant represents a useful option for IGF-1 and growth control.
# The patient was a person with no family history of growth disorders. […] […] the patient began to grow excessively in terms of length and weight, exceeding the 97th percentile of their growth charts […]. […] A random level of GHRH was raised, although no potential ectopic sources were identified. […] As chronic treatment with somatostatin analogs and dopamine agonists for 12 months had no effect on the patient's excessive growth and their pituitary lesion began impinging on the optic chiasm, the patient was referred for neurosurgical treatment.
# somatotroph cells [3] = test: GH secretion by primary pituitary tumor cell culture of an X-LAG patient; format: cell-based, human; details: 10^−13 M, overnight incubation, mean±SEM
# pituitary = details: cited from earlier work
# sporadic X-LAG patient = test: Dynamic pituitary hormone tests (TRH test, GnRH test) in the X-LAG patient; format: in vivo, human
# Description: Fluctuations in elevated GHRH levels also occurred, and these were partially but not completely in phase with alterations in GH. While the elevated prolactin levels varied by less than +7% from baseline throughout the study, changes in GH levels were more marked (−23.6% to +61.5%).
# [4] = listed as acetyl-(D-Arg^2)-GHRH(1-29)
# [5] = TRH 125 μg IV or GnRH 25 μg IV, 0, 15, 30 and 90 minutes
compound,measurement,setting,value
C=C[C@@]1(C)CC(=O)[C@]2(O)[C@@]3(C)[C@@H](O)CCC(C)(C)[C@@H]3[C@H](O)[C@H](OC(C)=O)[C@@]2(C)O1 [forskolin],rise in cAMP production compared with controls,cAMP production,+396±1.9%
NCCCC[C@@H]1NC(=O)[C@@H](Cc2c[nH]c3ccccc23)NC(=O)[C@H](c2ccccc2)NC(=O)[C@@H]2C[C@@H](OC(=O)NCCN)CN2C(=O)[C@H](Cc2ccccc2)NC(=O)[C@H](Cc2ccc(OCc3ccccc3)cc2)NC1=O [pasireotide] (cyclo([Hyp]([CO-Ethylenediamine])[Phg][dW]KY(Bn)F)),GH change compared to control wells,"somatotroph cells [1]; 10^−8M, mean±SEM",−18±0.6%
same,effect on GH secretion (in words),somatotroph cells [1],small inhibitory effect on GH secretion
same,effect on prolactin secretion (in words),somatotroph cells [2],no effect on prolactin secretion
"GnRH1-5: fragment of gonadotropin-releasing hormone, putative GPR101 agonist (QHWSY; ends and bridges not checked)",GH change compared to control wells,"somatotroph cells [1]; 10^−10 M, mean±SEM",+15±1.5%
same,effect on GH secretion (in words),somatotroph cells [1],little effect on GH
same,effect on prolactin secretion (in words),somatotroph cells [2],did not stimulate prolactin release
C=CCN1C[C@H](C(=O)N(CCCN(C)C)C(=O)NCC)C[C@@H]2c3cccc4[nH]cc(c34)C[C@H]21 [cabergoline],GH change compared to control wells,"somatotroph cells [1]; 10^−8M, mean±SEM",−32±0.8%
same,PRL change compared to control wells,somatotroph cells [2]; concentration not given,−15±0.04%
same,IGF-1 levels under treatment,X-LAG patients,remained consistently elevated
pegvisomant,control of IGF1 (and growth),X-LAG patients; postoperative use in X-LAG patients,control of IGF1 in all five X-LAG patients; also recorded: control of IGF1 and excessive growth in three patients
acetyl-(D-Arg^2)-GHRH(1-29) amide (Ac-Y[dR]DAIFTNSYRKVLGQLSARKLLQDIMSR-NH2; SMILES CC[C@H](C)[C@H](NC(=O)[C@H](C)NC(=O)[C@H](CC(=O)O)NC(=O)[C@@H](CCCNC(=N)N)NC(=O)[C@H](Cc1ccc(O)cc1)NC(C)=O)C(=O)N[C@@H](Cc1ccccc1)C(=O)N[C@H](C(=O)N[C@@H](CC(N)=O)C(=O)N[C@@H](CO)C(=O)N[C@@H](Cc1ccc(O)cc1)C(=O)N[C@@H](CCCNC(=N)N)C(=O)N[C@@H](CCCCN)C(=O)N[C@H](C(=O)N[C@@H](CC(C)C)C(=O)NCC(=O)N[C@@H](CCC(N)=O)C(=O)N[C@@H](CC(C)C)C(=O)N[C@@H](CO)C(=O)N[C@@H](C)C(=O)N[C@@H](CCCNC(=N)N)C(=O)N[C@@H](CCCCN)C(=O)N[C@@H](CC(C)C)C(=O)N[C@@H](CC(C)C)C(=O)N[C@@H](CCC(N)=O)C(=O)N[C@@H](CC(=O)O)C(=O)N[C@H](C(=O)N[C@@H](CCSC)C(=O)N[C@@H](CO)C(=O)N[C@@H](CCCNC(=N)N)C(N)=O)[C@@H](C)CC)C(C)C)[C@@H](C)O) [acetyl-(D-Arg^2)-GHRH (1-29) amide],GH change compared to control wells,somatotroph cells [3],+18±0.8%
same,GH change compared to control wells,"somatotroph cells [1]; 10^−11M, mean±SEM",+13±1.9%
same,effect on GH secretion (in words),somatotroph cells [1],reduce basal and stimulated GH and prolactin secretion in a dose dependent manner
same,GH response on co-incubation with GHRH,somatotroph cells [1],complete abolition
same,GH response on co-incubation with GHRH,somatotroph cells [1]; [4],abolished the stimulatory effect of GHRH itself
same,GH change compared to control wells,somatotroph cells [1]; highest GHRH-receptor antagonist dose studied,approximately −34±1.9%
same,PRL change compared to control wells,somatotroph cells [2]; 10^−8M,−73±0.1%
same,effect on prolactin secretion (in words),somatotroph cells [2],reduce basal and stimulated GH and prolactin secretion in a dose dependent manner
same,PRL response on co-incubation with GHRH,somatotroph cells [2],complete abolition
same,PRL response on co-incubation with GHRH,somatotroph cells [2]; [4],abolished the stimulatory effect of GHRH itself
Tyr-Ala-Asp-Ala-Ile-Phe-Thr-Asn-Ser-Tyr-Arg-Lys-Val-Leu-Gly-Gln-Leu-Ser-Ala-Arg-Lys-Leu-Leu-Gln-Asp-Ile-Met-Ser-Arg-NH2 [GHRH(1-29)],potency relative to native GHRH,pituitary,≥ 50%
C[C@@H](O)[C@@H]1NC(=O)[C@H](CCCCN)NC(=O)[C@@H](Cc2c[nH]c3ccccc23)NC(=O)[C@H](Cc2ccccc2)NC(=O)[C@@H](NC(=O)[C@H](N)Cc2ccccc2)CSSC[C@@H](C(=O)N[C@H](CO)[C@@H](C)O)NC1=O [octreotide],effect on GH secretion (in words),somatotroph cells [1],no inhibitory effect on GH or prolactin; also recorded: no inhibition in GH secretion
same,PRL change compared to control wells,somatotroph cells [2]; 10^−9M,−26±0.03%
same,effect on prolactin secretion (in words),somatotroph cells [2],no inhibitory effect on GH or prolactin
same,hormonal or growth control,X-LAG patients,did not lead to hormonal or growth control
same,IGF-1 levels under treatment,X-LAG patients,remained consistently elevated
CC(C)(N)C(=O)N[C@H](COCc1ccccc1)C(=O)N1CCC2(CC1)CN(S(C)(=O)=O)c1ccccc12 [MK-0677],GH change compared to control wells,"somatotroph cells [1]; concentration not given, mean±SEM",+15±0.5%
same,effect on prolactin secretion (in words),somatotroph cells [2],no effect on prolactin secretion
Ghrelin,effect on GH secretion (in words),somatotroph cells [1],minor stimulatory effect on GH secretion
CC(C)[C@@H]1NC(=O)[C@H](CCCCN)NC(=O)[C@@H](Cc2c[nH]c3ccccc23)NC(=O)[C@H](Cc2ccc(O)cc2)NC(=O)[C@@H](NC(=O)[C@H](N)Cc2ccc3ccccc3c2)CSSC[C@@H](C(=O)N[C@H](C(N)=O)[C@@H](C)O)NC1=O [lanreotide],hormonal or growth control,X-LAG patients,did not lead to hormonal or growth control
"GnRH: gonadotropin-releasing hormone, 25 μg IV GnRH (HRF-AYERST) (QHWSYGLRPG; not fully specified (residue 1, C-terminus); UniProt P01148 24-33, looked up)",GH level after GnRH administration,"sporadic X-LAG patient; 25 μg IV GnRH, baseline GH 212 ng/mL",50 ng/mL
same,GH response (in words),sporadic X-LAG patient; [5],suppression of GH levels at 30 mins
same,GHRH level response (in words),sporadic X-LAG patient; [5],not markedly altered; also recorded: GHRH levels remained unaltered; also recorded: remained elevated throughout
same,prolactin response (in words),sporadic X-LAG patient; [5],prolactin rose mildly
GHRH: Human GHRH (hGHRH) peptide is comprised of 44 amino acid residues (YADAIFTNSYRKVLGQLSARKLLQDIMSRQQGESNQERGARARL),GH change compared to control wells,"somatotroph cells [1]; 10^−10 M, mean±SEM",+41±0.4%
same,effect on GH secretion (in words),somatotroph cells [1],further stimulated
same,PRL change compared to control wells,somatotroph cells [2]; 10^−8M,+11±0.4%
same,effect on prolactin secretion (in words),somatotroph cells [2],further stimulated
